Source: patent US20220323383A1, “SMALL-MOLECULAR ADJUVANTS AND IMPLEMENTATIONS THEREOF” (JAWAHARLAL NEHRU CENTRE FOR ADVANCED SCIENTIFIC RESEARCH, priority 2019, published 2022)
Counter-ions that a name gives are not always drawn.

Key:
Format in all cases: cell-based
human RBCs = experiment: Haemolytic activity; settings: concentration at which 50% of human blood cells are lysed; 1 h at 37° C.
Method: Erythrocytes were isolated from freshly drawn, heparanized human blood and re-suspended to 5 vol % in PBS (pH 7.4). In a 96-well microtiter plate, 150 μl of erythrocyte suspension was added to 50 μl of serially diluted compound. Two controls were made, one without compound and other with 50 μl of 1 vol % solution of Triton X-100. The plate was incubated for 1 h at 37° C. The plate was then centrifuged at 3,500 rpm for 5 min, 100 μl of the supernatant from each well was transferred to a fresh 96-well microtiter plate, and A540 was measured. Percentage of hemolysis was determined as (A−A0)/(Atotal−A0)×100, where A is the absorbance of the test well, A0 the absorbance of the negative controls (without compound), and Atotal the absorbance of 100% hemolysis wells (with Triton X-100), all at 540 nm.
Toxicity studies of the compounds were done on freshly drawn human RBCs. Toxicity of the compounds were defined by their HC50 values (Table 2), i.e. the concentration of compound at which 50% of the blood cells are lysed.

A. baumannii R674 [1] = experiment: Individual antibacterial activity (MIC) of adjuvants; settings: Acinetobacter baumannii, R674, read-out: MIC against clinical isolates of bacteria
Method: (§1) The combination efficacy with antibiotics from different classes and individual antibacterial activity of the synthesized adjuvants was evaluated against the above mentioned MDR and NDM-1 strains of Gram-negative bacteria. All the bacteria were grown in peptone. The bacterial samples were freeze dried and stored at −80° C. 3 μl of these stocks were added to 3 mL of peptone and the culture was grown for 6 h at 37° C. prior to the experiments.
(§2) All synthesized compounds were assayed for their antibacterial activity in combination with antibiotics in a modified chequerboard micro-dilution broth format. Stock solutions were made by serially diluting the compounds using autoclaved millipore water. The bacterial freeze dried stock samples were stored at −80° C. About 3 μL of these stocks were added to about 3 mL of the respective broth and the culture was grown for about 6 h at about 37° C. with prior to the experiments. This 6 h grown culture gives about 10^8 cfu/mL in case of A. baumannii R674, P. aeruginosa R590, E. coli R3336 and K. pneumoniae R3934 which were determined by spread plating method. This 6 h grown culture was diluted to give effective cell concentration of 10^5 cfu/mL, and then used for the chequerboard assay. Adjuvants and antibiotics were serially diluted in two-fold, in sterile millipore water. 25 μL of these serial dilutions of the antibiotics and 25 μL of compounds were added to the wells of 96 well plate followed by the addition of about 150 μL of bacterial solution (˜10^5 cfu/mL). The plates were then incubated at about 37° C., 150 rpm in the incubator and O.D at 600 nm was recorded at 24 h using TECAN (Infinite series, M200 pro) Plate Reader. The wells with similar OD as the media control contained the required concentration of the antibiotic and adjuvant for antibacterial efficacy. The potentiation ability of the adjuvants was determined by calculating the potentiation factor and the Fractional Inhibitory concentration (FIC) index. Fractional Inhibitory Concentration (FIC) is expressed as, FIC=[X]/MICX, where [X] is the lowest inhibitory concentration of antibiotic in the presence of the adjuvant. Whereas FIC index is expressed as, FICI=FICantibiotic+FICadjuvant. The values of FIC index give an insight about the nature of the combination. Potentiation factor which means fold-reduction in the MIC of the antibiotic, when used in combination with the adjuvant was also determined. Potentiation factor=[Minimum inhibitory concentration (MIC) of antibiotic in absence of adjuvant]/[MIC of antibiotic in presence of adjuvant]. […] The combination efficacies of adjuvants with various antibiotics are furnished in Table 1. It should be noted that various other resistant strains of bacteria (Gram-positive and Gram-negative) can be tested with a number of other antibiotics to check the potentiation capacity of the adjuvants.

K. pneumoniae R3934 [2] = experiment: as above; settings: Klebsiella pneumoniae, R3934, read-out: MIC against clinical isolates of bacteria
Method: as §1, §2

E. coli R3336 = experiment: as above; settings: Escherichia coli, R3336, read-out: MIC against clinical isolates of bacteria
Method: as §1, §2

P. aeruginosa R590 = experiment: as above; settings: Pseudomonas aeruginosa, R590, read-out: MIC against clinical isolates of bacteria
Method: as §1, §2

A. baumannii R674 [3] = experiment: Chequerboard combination efficacy of adjuvant with antibiotics
Method: (§3) All the solvents were of reagent grade, which were distilled and dried before its use. All the reagents were purchased from Sigma-Aldrich, Alfa-Aesar, S.D. Fine, Avra and Spectrochem, and were used without further purification. Analytical thin layer chromatography (TLC) was performed on E. Merck TLC plates pre-coated with silica gel 60 F254 and visualization was carried out using UV light and Iodine. Column chromatography was performed on silica gel (60-120 mesh) using different ratio of chloroform and methanol solvent system. Nuclear magnetic resonance spectra were recorded on Bruker (AV-400) 400 MHz spectrometer in deuterated solvents. Mass spectra were obtained using 6538-UHD Accurate mass Q-TOF LC-MS instrument. For optical density measurement during bacteriology experiments, Tecan Infinite Pro series M200 Microplate Reader was used. Bacterial strains, A. baumannii (R674), P. aeruginosa (R590), E. coli (R3336) and K. pneumoniae (R3934) were used for the studies.
as §1, §2

K. pneumoniae R3934 [4] = experiment: as above
Method: as §3, §1, §2

SMILES: NCCCC[C@H](N)C(=O)NCCCCCCN(CCCCCCNC(=O)[C@@H](N)CCCCN)C(=O)Cc1cccc2ccccc12 [Compound 13, N,N-bis-[(6-(^LLys)amido)hexyl] naphthyl ethanamide tetrakistrifluoroacetate]
- HC50 (human RBCs): >1024 µg/mL
- MIC (A. baumannii R674 [1]): 512 µg/mL
- MIC (K. pneumoniae R3934 [2]): > 512 µg/mL
- MIC (E. coli R3336): > 512 µg/mL
- MIC (P. aeruginosa R590): 512 µg/mL
- MIC of antibiotic in presence of adjuvant (A. baumannii R674 [3]; antibiotic Ampicillin): No potentiation
- FICI (A. baumannii R674 [3]; antibiotic Ciprofloxacin): 0.3125
- MIC of antibiotic in presence of adjuvant (A. baumannii R674 [3]; antibiotic Ciprofloxacin): 64 µg/mL
- Potentiation factor (A. baumannii R674 [3]; antibiotic Ciprofloxacin): 4
- FICI (A. baumannii R674 [3]; antibiotic Erythromycin): 0.156
- MIC of antibiotic in presence of adjuvant (A. baumannii R674 [3]; antibiotic Erythromycin): 16 µg/mL
- Potentiation factor (A. baumannii R674 [3]; antibiotic Erythromycin): 32
- FICI (A. baumannii R674 [3]; antibiotic Fusidic acid): <0.023
- MIC of antibiotic in presence of adjuvant (A. baumannii R674 [3]; antibiotic Fusidic acid): <0.5 µg/mL
- Potentiation factor (A. baumannii R674 [3]; antibiotic Fusidic acid): >128
- FICI (A. baumannii R674 [3]; antibiotic Linezolid): 0.1875
- MIC of antibiotic in presence of adjuvant (A. baumannii R674 [3]; antibiotic Linezolid): 32 µg/mL
- Potentiation factor (A. baumannii R674 [3]; antibiotic Linezolid): 8
- FICI (A. baumannii R674 [3]; antibiotic Minocycline): 0.1875
- MIC of antibiotic in presence of adjuvant (A. baumannii R674 [3]; antibiotic Minocycline): 0.5 µg/mL
- Potentiation factor (A. baumannii R674 [3]; antibiotic Minocycline): 16
- FICI (A. baumannii R674 [3]; antibiotic Rifampicin): 0.023
- MIC of antibiotic in presence of adjuvant (A. baumannii R674 [3]; antibiotic Rifampicin): 1 µg/mL
- Potentiation factor (A. baumannii R674 [3]; antibiotic Rifampicin): 64
- MIC of antibiotic in presence of adjuvant (A. baumannii R674 [3]; antibiotic Streptomycin): No potentiation
- FICI (A. baumannii R674 [3]; antibiotic Tetracycline): 0.375
- MIC of antibiotic in presence of adjuvant (A. baumannii R674 [3]; antibiotic Tetracycline): 16 µg/mL
- Potentiation factor (A. baumannii R674 [3]; antibiotic Tetracycline): 8
- FICI (A. baumannii R674 [3]; antibiotic Vancomycin): 0.5625
- MIC of antibiotic in presence of adjuvant (A. baumannii R674 [3]; antibiotic Vancomycin): 32 µg/mL
- Potentiation factor (A. baumannii R674 [3]; antibiotic Vancomycin): 2
- FICI (K. pneumoniae R3934 [4]; antibiotic Fusidic acid): <0.133
- MIC of antibiotic in presence of adjuvant (K. pneumoniae R3934 [4]; antibiotic Fusidic acid): 4 µg/mL
- Potentiation factor (K. pneumoniae R3934 [4]; antibiotic Fusidic acid): 128
- FICI (K. pneumoniae R3934 [4]; antibiotic Linezolid): <0.25
- MIC of antibiotic in presence of adjuvant (K. pneumoniae R3934 [4]; antibiotic Linezolid): 64 µg/mL
- Potentiation factor (K. pneumoniae R3934 [4]; antibiotic Linezolid): >8
- FICI (K. pneumoniae R3934 [4]; antibiotic Minocycline): <0.07
- MIC of antibiotic in presence of adjuvant (K. pneumoniae R3934 [4]; antibiotic Minocycline): 0.5 µg/mL
- Potentiation factor (K. pneumoniae R3934 [4]; antibiotic Minocycline): 128
- FICI (K. pneumoniae R3934 [4]; antibiotic Rifampicin): <0.064
- MIC of antibiotic in presence of adjuvant (K. pneumoniae R3934 [4]; antibiotic Rifampicin): 1 µg/mL
- Potentiation factor (K. pneumoniae R3934 [4]; antibiotic Rifampicin): 512

SMILES: NCCCC[C@H](N)C(=O)NCCCCCCN(CCCCCCNC(=O)[C@@H](N)CCCCN)C(=O)CC(c1ccccc1)c1ccccc1 [Compound 14, N,N-bis-[(6-(^LLys)amido)hexyl] 3,3-diphenyl propanamide tetrakis trifluoroacetate]
- HC50 (human RBCs): >1024 µg/mL
- MIC (A. baumannii R674 [1]): > 512 µg/mL
- MIC (K. pneumoniae R3934 [2]): > 512 µg/mL
- MIC (E. coli R3336): > 512 µg/mL
- MIC (P. aeruginosa R590): > 512 µg/mL
- MIC of antibiotic in presence of adjuvant (A. baumannii R674 [3]; antibiotic Ampicillin): No potentiation
- FICI (A. baumannii R674 [3]; antibiotic Ciprofloxacin): <0.281
- MIC of antibiotic in presence of adjuvant (A. baumannii R674 [3]; antibiotic Ciprofloxacin): 64 µg/mL
- Potentiation factor (A. baumannii R674 [3]; antibiotic Ciprofloxacin): 4
- FICI (A. baumannii R674 [3]; antibiotic Erythromycin): <0.0625
- MIC of antibiotic in presence of adjuvant (A. baumannii R674 [3]; antibiotic Erythromycin): 16 µg/mL
- Potentiation factor (A. baumannii R674 [3]; antibiotic Erythromycin): 32
- FICI (A. baumannii R674 [3]; antibiotic Fusidic acid): <0.012
- MIC of antibiotic in presence of adjuvant (A. baumannii R674 [3]; antibiotic Fusidic acid): <0.5 µg/mL
- Potentiation factor (A. baumannii R674 [3]; antibiotic Fusidic acid): >128
- FICI (A. baumannii R674 [3]; antibiotic Linezolid): <0.156
- MIC of antibiotic in presence of adjuvant (A. baumannii R674 [3]; antibiotic Linezolid): 32 µg/mL
- Potentiation factor (A. baumannii R674 [3]; antibiotic Linezolid): 8
- FICI (A. baumannii R674 [3]; antibiotic Minocycline): <0.129
- MIC of antibiotic in presence of adjuvant (A. baumannii R674 [3]; antibiotic Minocycline): 1 µg/mL
- Potentiation factor (A. baumannii R674 [3]; antibiotic Minocycline): 8
- FICI (A. baumannii R674 [3]; antibiotic Rifampicin): <0.017
- MIC of antibiotic in presence of adjuvant (A. baumannii R674 [3]; antibiotic Rifampicin): <0.125 µg/mL
- Potentiation factor (A. baumannii R674 [3]; antibiotic Rifampicin): >512
- MIC of antibiotic in presence of adjuvant (A. baumannii R674 [3]; antibiotic Streptomycin): No potentiation
- FICI (A. baumannii R674 [3]; antibiotic Tetracycline): <0.25
- MIC of antibiotic in presence of adjuvant (A. baumannii R674 [3]; antibiotic Tetracycline): 16 µg/mL
- Potentiation factor (A. baumannii R674 [3]; antibiotic Tetracycline): 8
- FICI (A. baumannii R674 [3]; antibiotic Vancomycin): <0.3125
- MIC of antibiotic in presence of adjuvant (A. baumannii R674 [3]; antibiotic Vancomycin): 16 µg/mL
- Potentiation factor (A. baumannii R674 [3]; antibiotic Vancomycin): 4
- FICI (K. pneumoniae R3934 [4]; antibiotic Fusidic acid): <0.1289
- MIC of antibiotic in presence of adjuvant (K. pneumoniae R3934 [4]; antibiotic Fusidic acid): 2 µg/mL
- Potentiation factor (K. pneumoniae R3934 [4]; antibiotic Fusidic acid): 256
- FICI (K. pneumoniae R3934 [4]; antibiotic Linezolid): <0.1328
- MIC of antibiotic in presence of adjuvant (K. pneumoniae R3934 [4]; antibiotic Linezolid): 64 µg/mL
- Potentiation factor (K. pneumoniae R3934 [4]; antibiotic Linezolid): >8
- FICI (K. pneumoniae R3934 [4]; antibiotic Minocycline): <0.1328
- MIC of antibiotic in presence of adjuvant (K. pneumoniae R3934 [4]; antibiotic Minocycline): 0.5 µg/mL
- Potentiation factor (K. pneumoniae R3934 [4]; antibiotic Minocycline): 128
- FICI (K. pneumoniae R3934 [4]; antibiotic Rifampicin): <0.126
- MIC of antibiotic in presence of adjuvant (K. pneumoniae R3934 [4]; antibiotic Rifampicin): 0.5 µg/mL
- Potentiation factor (K. pneumoniae R3934 [4]; antibiotic Rifampicin): 1024
